ChEMBL document CHEMBL1201862, “PubChem BioAssay data set” (2004)
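A five-concentration, 48-hour dose response in 96-well plates underlies each endpoint, interpolated linearly between surrounding concentrations. GI50 marks 50% less growth.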 Activity calls are given as the source filed them. No stated cut-off is given here; in the data, active = GI50 up to about 1.1 µM and inactive = higher.

Tests used:
Experiment in all cases: NCI-60 cell line screen, 48 h
KM12 = tested on: KM12
SN12C = tested on: SN12C
LOX IMVI = tested on: LOX IMVI
SK-MEL-2 = tested on: SK-MEL-2
HOP-62 = tested on: HOP-62
OVCAR-5 = tested on: OVCAR-5
HL-60 = tested on: HL-60
HT-29 = tested on: HT-29
CCRF-CEM = tested on: CCRF-CEM
K562 = tested on: K562
SNB-19 = tested on: SNB-19
OVCAR-8 = tested on: OVCAR-8
NCI-H460 = tested on: NCI-H460
OVCAR-3 = tested on: OVCAR-3
NCI-H23 = tested on: NCI-H23
SW-620 = tested on: SW-620
MCF7 = tested on: MCF7
COLO 205 = tested on: COLO 205
BT-549 = tested on: BT-549

Measured: GI50

C/C(=N\[N+](C)(C)C)C(c1ccccc1)C1(c2ccccc2)C(c2ccccc2)=C1c1ccccc1 (stereo not given)
inactive: KM12 > 100 µM | SN12C > 100 µM | LOX IMVI > 100 µM | SK-MEL-2 > 100 µM | HOP-62 33 µM | OVCAR-5 > 100 µM | HL-60 > 100 µM | HT-29 > 100 µM | CCRF-CEM > 100 µM | K562 > 100 µM | SNB-19 > 100 µM | OVCAR-8 67.5 µM | NCI-H460 > 100 µM | OVCAR-3 > 100 µM | NCI-H23 > 100 µM | SW-620 > 100 µM

Cc1ccc(S(=O)(=O)NCCCCC(N)C(=O)O)cc1 (stereo not given)
inactive: KM12 > 100 µM | SN12C > 100 µM | MCF7 > 100 µM | HOP-62 > 100 µM | OVCAR-5 > 100 µM | HT-29 > 100 µM | CCRF-CEM > 100 µM | K562 > 100 µM | SNB-19 > 100 µM | OVCAR-8 > 100 µM | NCI-H460 > 100 µM | OVCAR-3 > 100 µM | NCI-H23 > 100 µM | COLO 205 > 100 µM | BT-549 > 100 µM | SW-620 > 100 µM

N#Cc1c(N2CCCC2)ncn(Cc2ccccc2)c1=O
inactive: KM12 > 100 µM | SN12C > 100 µM | LOX IMVI > 100 µM | SK-MEL-2 > 100 µM | HOP-62 > 100 µM | OVCAR-5 > 100 µM | HL-60 > 100 µM | HT-29 > 100 µM | CCRF-CEM > 100 µM | K562 > 100 µM | SNB-19 > 100 µM | OVCAR-8 > 100 µM | NCI-H460 > 100 µM | OVCAR-3 > 100 µM | COLO 205 > 100 µM | BT-549 > 100 µM | SW-620 > 100 µM

C(=N/Nc1ccc(-c2nc3ccccc3[nH]2)cc1)/c1c(-c2ccccc2)[nH]c2ccccc12
active: KM12 0.4 µM | LOX IMVI 0.759 µM | MCF7 0.361 µM | SK-MEL-2 0.199 µM | HOP-62 0.319 µM | HL-60 0.211 µM | HT-29 0.222 µM | CCRF-CEM 0.443 µM | K562 0.176 µM | OVCAR-8 0.698 µM | NCI-H460 0.315 µM | OVCAR-3 0.219 µM | NCI-H23 0.973 µM | SW-620 0.317 µM

COc1cc2c(cc1OCCCOc1cc(-c3ccc(F)cc3)nc(C)n1)N=C[C@@H]1CCCN1C2=O
inactive: KM12 19.3 µM | SN12C 16.5 µM | LOX IMVI 13.6 µM | MCF7 29.4 µM | SK-MEL-2 17.2 µM | HL-60 24.9 µM | HT-29 23.1 µM | CCRF-CEM 15.8 µM | SNB-19 20.1 µM | OVCAR-8 24.5 µM | NCI-H460 > 100 µM | OVCAR-3 15.2 µM | NCI-H23 15.1 µM | COLO 205 29.1 µM | SW-620 22.9 µM

N#CC(c1cc2c(cc1Br)OCO2)N1CCOCC1 (stereo not given)
inactive: KM12 67.6 µM | SN12C 56.2 µM | LOX IMVI 24.5 µM | MCF7 42.3 µM | HOP-62 44 µM | OVCAR-5 > 100 µM | HL-60 3.33 µM | HT-29 42.5 µM | CCRF-CEM 7.26 µM | K562 3.32 µM | SNB-19 61.9 µM | OVCAR-8 > 100 µM | NCI-H460 > 100 µM | OVCAR-3 30.1 µM | NCI-H23 98.2 µM | COLO 205 64.9 µM | SW-620 9.04 µM

CCOC(=O)Nc1[nH]cc(-c2ccccc2)c1C#N
inactive: KM12 > 100 µM | SN12C > 100 µM | LOX IMVI > 100 µM | MCF7 > 100 µM | SK-MEL-2 > 100 µM | HOP-62 > 100 µM | OVCAR-5 > 100 µM | HL-60 > 100 µM | HT-29 > 100 µM | CCRF-CEM > 100 µM | K562 > 100 µM | SNB-19 > 100 µM | OVCAR-8 > 100 µM | OVCAR-3 > 100 µM | NCI-H23 > 100 µM | COLO 205 > 100 µM | SW-620 > 100 µM

Cc1cccc2c(=O)c3cccc([C@@H](C)C(=O)O)c3oc12
inactive: KM12 > 100 µM | SN12C > 100 µM | LOX IMVI > 100 µM | SK-MEL-2 80.7 µM | HOP-62 > 100 µM | HL-60 > 100 µM | HT-29 > 100 µM | CCRF-CEM > 100 µM | K562 > 100 µM | SNB-19 > 100 µM | OVCAR-8 > 100 µM | NCI-H460 > 100 µM | OVCAR-3 > 100 µM | NCI-H23 > 100 µM | COLO 205 > 100 µM | SW-620 > 100 µM

O=[N+]([O-])/C(Cl)=C(/C(Cl)=C(Cl)Cl)N1CCCCC1
inactive: KM12 14.5 µM | SN12C 14.2 µM | LOX IMVI 7.33 µM | SK-MEL-2 25.2 µM | HOP-62 22.6 µM | OVCAR-5 14.9 µM | HL-60 2.64 µM | HT-29 14.9 µM | CCRF-CEM 4.73 µM | K562 7.64 µM | SNB-19 24.5 µM | OVCAR-8 4.14 µM | NCI-H460 18.7 µM | OVCAR-3 10.8 µM | NCI-H23 8.49 µM | COLO 205 10 µM
active: MCF7 0.444 µM

O=[N+]([O-])c1ccc(-c2noc(-c3ccccc3)c2C2=NCCN2)cc1
inactive: KM12 > 100 µM | SN12C > 100 µM | LOX IMVI 71 µM | SK-MEL-2 > 100 µM | HOP-62 29.9 µM | OVCAR-5 > 100 µM | HL-60 55.3 µM | HT-29 52.1 µM | CCRF-CEM > 100 µM | K562 > 100 µM | SNB-19 53.2 µM | OVCAR-8 > 100 µM | NCI-H460 > 100 µM | OVCAR-3 28.6 µM | COLO 205 45.5 µM | SW-620 > 100 µM

O=C(Cc1cccs1)N[C@@H]1C(=O)N2C(C(=O)OC(c3ccccc3)c3ccccc3)=C(CO)CS[C@H]12
inactive: KM12 38.1 µM | SN12C > 100 µM | LOX IMVI > 100 µM | MCF7 > 100 µM | SK-MEL-2 > 100 µM | OVCAR-5 > 100 µM | HL-60 46.6 µM | CCRF-CEM 20 µM | K562 > 100 µM | OVCAR-8 > 100 µM | NCI-H460 75.2 µM | OVCAR-3 > 100 µM | NCI-H23 46 µM | COLO 205 > 100 µM | SW-620 > 100 µM

N#CCCC1(CCC#N)CCCCCCCCC(CCC#N)(CCC#N)C(=O)C1=O
inactive: KM12 > 100 µM | SN12C > 100 µM | LOX IMVI > 100 µM | MCF7 > 100 µM | SK-MEL-2 > 100 µM | HOP-62 > 100 µM | OVCAR-5 > 100 µM | HL-60 > 100 µM | HT-29 > 100 µM | K562 83.9 µM | SNB-19 > 100 µM | OVCAR-8 > 100 µM | NCI-H460 > 100 µM | OVCAR-3 > 100 µM | NCI-H23 > 100 µM | COLO 205 > 100 µM | SW-620 > 100 µM

Cc1cc(-c2ccc[nH]2)on1
inactive: KM12 > 100 µM | MCF7 > 100 µM | SK-MEL-2 > 100 µM | HOP-62 > 100 µM | OVCAR-5 > 100 µM | HT-29 > 100 µM | CCRF-CEM > 100 µM | K562 > 100 µM | SNB-19 > 100 µM | OVCAR-8 > 100 µM | NCI-H460 > 100 µM | OVCAR-3 > 100 µM | NCI-H23 > 100 µM | COLO 205 > 100 µM | BT-549 > 100 µM | SW-620 > 100 µM

O=c1[nH]c2c(S)nc(O)nc2n1-c1ccccc1
inactive: KM12 > 100 µM | SN12C > 100 µM | LOX IMVI > 100 µM | SK-MEL-2 > 100 µM | HOP-62 > 100 µM | OVCAR-5 > 100 µM | HT-29 > 100 µM | K562 > 100 µM | SNB-19 > 100 µM | OVCAR-8 > 100 µM | NCI-H460 > 100 µM | OVCAR-3 > 100 µM | NCI-H23 > 100 µM | BT-549 > 100 µM | SW-620 > 100 µM

C#CCNC(Cc1ccccc1)C(=O)O (stereo not given)
inactive: KM12 > 100 µM | LOX IMVI > 100 µM | SK-MEL-2 > 100 µM | HOP-62 > 100 µM | OVCAR-5 > 100 µM | HL-60 > 100 µM | HT-29 > 100 µM | CCRF-CEM > 100 µM | K562 > 100 µM | SNB-19 > 100 µM | OVCAR-8 > 100 µM | NCI-H460 > 100 µM | OVCAR-3 > 100 µM | NCI-H23 > 100 µM | COLO 205 > 100 µM | BT-549 > 100 µM | SW-620 > 100 µM

COC(C/C(=C/CO[Si](C(C)C)(C(C)C)C(C)C)C(=O)N(COCC[Si](C)(C)C)c1ccccc1I)OC
inactive: KM12 31.8 µM | SN12C 71 µM | LOX IMVI 14.7 µM | SK-MEL-2 14.9 µM | HOP-62 50.9 µM | OVCAR-5 32.4 µM | HT-29 60.3 µM | CCRF-CEM 22.7 µM | K562 > 100 µM | SNB-19 26.1 µM | OVCAR-8 89.5 µM | NCI-H460 33.4 µM | OVCAR-3 17.8 µM | NCI-H23 17.3 µM | COLO 205 57.7 µM | SW-620 33.5 µM

CN(Cc1cc(Cl)c(Cl)cc1NC(=O)CN)[C@H]1CCCC[C@@H]1N1CCCC1
inactive: KM12 44.4 µM | SN12C 69.3 µM | LOX IMVI 15.4 µM | MCF7 32.4 µM | SK-MEL-2 16.2 µM | HOP-62 92.7 µM | OVCAR-5 46.3 µM | HL-60 40.4 µM | HT-29 19 µM | CCRF-CEM 30.3 µM | K562 17.8 µM | SNB-19 45.2 µM | OVCAR-8 54.5 µM | NCI-H460 21.8 µM | OVCAR-3 74 µM | NCI-H23 > 100 µM | COLO 205 15.2 µM | SW-620 37.5 µM
